Target: T1, MAPK14 (p38 alpha) (Homo sapiens, UniProt Q16539)
T1 construct: purchased Thermo Fisher Scientific (Life Technologies) SelectScreen
Assay: SelectScreen Z'LYTE
Format: biochemical
Procedure, shortened: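 NU5455 was profiled across the SelectScreen Broad panel of kinase activity and binding assays. Z'LYTE reactions such as CSF1R ran at apparent Km ATP, while the Adapta CAMK1 assay used ATP listed as 10. Values are given as percent.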

T1 sequence (Q16539 whole entry): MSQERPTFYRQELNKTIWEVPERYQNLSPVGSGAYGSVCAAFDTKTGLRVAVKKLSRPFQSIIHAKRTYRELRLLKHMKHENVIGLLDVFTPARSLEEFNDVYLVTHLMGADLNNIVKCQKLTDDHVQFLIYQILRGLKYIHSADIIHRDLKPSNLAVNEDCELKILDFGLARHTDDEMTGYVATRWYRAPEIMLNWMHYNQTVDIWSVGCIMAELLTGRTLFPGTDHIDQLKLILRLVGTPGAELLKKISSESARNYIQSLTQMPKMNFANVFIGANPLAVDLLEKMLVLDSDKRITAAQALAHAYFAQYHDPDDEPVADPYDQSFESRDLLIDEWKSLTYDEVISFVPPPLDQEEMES

CN(C(=O)CN1CCOCC1)c1ccc2sc3c(-c4cccc5c(=O)cc(N6CC7CCC(C6)O7)oc45)cccc3c2c1 [NU5455]
inhibition at 1 µM: 9.7%
